Source: patent US12522588B2, “Herbicidal compounds” (SYNGENTA CROP PROTECTION AG, priority 2020, dated 2026)

What was measured:
Format in all cases: in vivo
[1] = tested on: Amaranthus retoflexus (AMARE); test: Post-emergence test, glasshouse; conditions: 250 g/ha, evaluated after 13 days, Table B1
Experimental: (§1) Seeds of a variety of test species are sown in standard soil in pots Amaranthus retoflexus (AMARE), Abutilon theophrasti (ABUTH), Setaria faberi (SETFA), Echinochloa crus-galli (ECHCG), Ipomoea hederacea (IPOHE)). After cultivation for one day (pre-emergence) or after 8 days cultivation (post-emergence) under controlled conditions in a glasshouse (at 24/16° C., day/night; 14 hours light; 65% humidity), the plants are sprayed with an aqueous spray solution derived from the formulation of the technical active ingredient in acetone/water (50:50) solution containing 0.5% Tween 20 (polyoxyethelyene sorbitan monolaurate, CAS RN 9005-64-5). Compounds are applied at 250 g/ha unless otherwise stated. The test plants are then grown in a glasshouse under controlled conditions in a glasshouse (at 24/16° C., day/night; 14 hours light; 65% humidity) and watered twice daily. After 13 days for pre and post-emergence, the test is evaluated for the percentage damage caused to the plant. The biological activities are shown in the following table on a five-point scale (5=81-100%; 4=61-80%; 3=41-60%; 2=21-40%; 1=0-20%).

[2] = tested on: Ipomoea hederacea (IPOHE); test: Post-emergence test, glasshouse; conditions: 250 g/ha, evaluated after 13 days, Table B1
Experimental: as §1

[3] = tested on: Echinochloa crus-galli (ECHCG); test: Post-emergence test, glasshouse; conditions: 250 g/ha, evaluated after 13 days, Table B1
Experimental: as §1

[4] = tested on: Abutilon theophrasti (ABUTH); test: Post-emergence test, glasshouse; conditions: 250 g/ha, evaluated after 13 days, Table B1
Experimental: as §1

[5] = tested on: Setaria faberi (SETFA); test: Post-emergence test, glasshouse; conditions: 250 g/ha, evaluated after 13 days, Table B1
Experimental: as §1

[6] = tested on: Amaranthus retoflexus (AMARE); test: Pre-emergence test, glasshouse; conditions: 250 g/ha, evaluated after 13 days, Table B2
Experimental: as §1

[7] = tested on: Ipomoea hederacea (IPOHE); test: Pre-emergence test, glasshouse; conditions: 250 g/ha, evaluated after 13 days, Table B2
Experimental: as §1

[8] = tested on: Echinochloa crus-galli (ECHCG); test: Pre-emergence test, glasshouse; conditions: 250 g/ha, evaluated after 13 days, Table B2
Experimental: as §1

[9] = tested on: Abutilon theophrasti (ABUTH); test: Pre-emergence test, glasshouse; conditions: 250 g/ha, evaluated after 13 days, Table B2
Experimental: as §1

[10] = tested on: Setaria faberi (SETFA); test: Pre-emergence test, glasshouse; conditions: 250 g/ha, evaluated after 13 days, Table B2
Experimental: as §1

Structure (SMILES)	percentage damage caused to the plant, AMARE [1]	percentage damage caused to the plant, IPOHE [2]	percentage damage caused to the plant, ECHCG [3]	percentage damage caused to the plant, ABUTH [4]	percentage damage caused to the plant, SETFA [5]	percentage damage caused to the plant, AMARE [6]	percentage damage caused to the plant, IPOHE [7]	percentage damage caused to the plant, ECHCG [8]	percentage damage caused to the plant, ABUTH [9]	percentage damage caused to the plant, SETFA [10]
Cc1ccc(-n2nc(C(F)(F)F)cc2Oc2ncc(Cl)cn2)nn1 [Compound 1.012]	2 (2=21-40%)	1 (1=0-20%)	1 (1=0-20%)	1 (1=0-20%)	1 (1=0-20%)	3 (3=41-60%)	1 (1=0-20%)	1 (1=0-20%)	1 (1=0-20%)	1 (1=0-20%)
FC(F)(F)c1cc(Oc2ncc(Cl)cn2)n(-c2cccc(Cl)c2)n1 [Compound 1.004]	5 (5=81-100%)	4 (4=61-80%)	3 (3=41-60%)	1 (1=0-20%)	3 (3=41-60%)	5 (5=81-100%)	1 (1=0-20%)	2 (2=21-40%)	1 (1=0-20%)	3 (3=41-60%)
